# Measurements published in ChEMBL document CHEMBL1131785, “Design and synthesis of amidino-tyrosine derivatives as non-peptide fibrinogen receptor antagonists” (Bioorg Med Chem Lett, 1999).
# Species: Homo sapiens
# Assay: Inhibitory activity against adenosine diphosphate (ADP)-induced platelet aggregation
# Format: functional, organism-based
row,SMILES,IC50 [nM]
1,N=C(N)c1ccc(OCCCOc2ccc(C[C@H](NC(=O)c3ccccc3)C(=O)O)cc2)cc1,> 1000
2,N=C(N)c1ccc(OCCOc2ccc(C[C@H](NC(=O)c3ccccc3)C(=O)O)cc2)cc1,740
3,N=C(N)c1ccc(OCCCCOc2ccc(C[C@H](NC(=O)c3ccccc3)C(=O)O)cc2)cc1,> 1000

# The next compounds have a lower IC50 than those just listed; values first:
row,IC50 [nM],SMILES
1,710,N=C(N)c1ccc(OCCOc2ccc(C[C@H](NC(=O)c3ccco3)C(=O)O)cc2)cc1
2,610,Cc1ccccc1OCC(=O)N[C@@H](Cc1ccc(OCC(=O)Nc2ccc(C(=N)N)cc2)cc1)C(=O)O
3,510,N=C(N)c1ccc(NC(=O)COc2ccc(C[C@H](NC(=O)c3ccc4ccccc4c3)C(=O)O)cc2)cc1
4,270,N=C(N)c1ccc(NC(=O)COc2ccc(C[C@H](NC(=O)c3ccccc3)C(=O)O)cc2)cc1
5,250,Cc1ccc(C(=O)N[C@@H](Cc2ccc(OCC(=O)Nc3ccc(C(=N)N)cc3)cc2)C(=O)O)cc1
